Data from patent US10618929B2, “3-substituted 5-amino-6H-thiazolo[4,5-D]pyrimidine-2, 7-dione compounds for the treatment and prophylaxis of virus infection” (Hoffmann-La Roche Inc., priority 2014, dated 2020).

Assays:
[1] = test system: murine peripheral blood mononuclear cells (PBMC); experiment: In vitro cytokine induction in murine PBMC (multiplex assay); conditions: 2 to 10 μM, 24 hours, supernatant, dose-dependent
Description: 50 μL of cell culture medium was collected and analyzed with a 36plex Procarta multiplex kit (ebioscience EPX360-26092-901, eBioscience), which measured the levels of 15 cytokine analytes, following the manufacturer's instruction.

human hepatocytes = experiment: Metabolic conversion of prodrugs to active forms in human hepatocytes; type: in vitro ADME; conditions: active metabolites Example 1-A, Example 14-A and penciclovir, respectively
Source text: A study was undertaken to evaluate the metabolic conversion of prodrugs, formula (II) or formula (IIa), to compounds of formula (I) or formula (Ia) of the present invention. The produgs, formula (II) or formula (IIa), can be metabolized to the active compound of formula (I) or formula (Ia) and other compounds of the invention in the body if they are served as prodrugs. Hepatocytes are often used to assess the degree of metabolic conversion of prodrugs in the body of animal or human. A study was undertaken to evaluate the metabolic conversion of prodrugs, Example 2-A, Example 3-A, Example 4-A, Example 16-A and Example 17-A, to the corresponding active forms, Example 1-A and Example 14-A, in the presence of human hepatocytes. The formation of active forms, Example 1-A and Example 14-A, were monitored in the study. For comparison, the metabolic conversion of famciclovir to penciclovir was also assessed. Cryopreserved hepatocytes plating medium (Cat. #: PY-HMD-01) was purchased from RILD Research Institute for Liver Diseases (Shanghai) Co. Ltd. Cryopreserved human hepatocyte (Cat. #: X008005, Lot #:VRR) was purchased from In Vitro Technologies (Baltimore, Md.). The stock hepatocyte suspension was prepared from cryopreserved hepatocytes in plating medium at the concentration of 1.8×10^6 cells/mL. […] Reaction suspensions were prepared in 24-well cell culture plate by mixing 200 μL of hepatocytes suspension (Cyno or human) and 200 μL of working solution. The final incubation contained 0.9×10^6 cells/mL and 50 μM compound. The above mixtures were incubated at 37° C. in a humidified 5% CO2 atmosphere, with a 150 rpm shaking. After 180 min of incubation, 200 μL of the incubation mixture was transferred to 1.5 mL tube and quenched with 400 μL stop solution (ice-cold acetonitrile with 0.2 μM Tolbutamide as internal standard). The samples were centrifuged at 12000 rpm for 10 minutes and the resultant supernatants were subjected to LC-MS/MS analysis. The calibration curves were prepared in the following way. To a 200 μL of cell suspension (cell density of 1.8 million cells/mL), 198 μL of hepatocyte plating medium and 2 μL of the appropriate concentration of the compound in DMSO were added. Samples were mixed thoroughly and 200 μL of the mixture was transferred to 400 uL of the stop solution (see above). […] The compounds were quantified on an API5500 […] instrument in the ESI-Positive MRM mode.

SMILES	Cytokine induction in murine PBMC [1]	Metabolic conversion of prodrug to active metabolite (human hepatocytes)
CCC(O)[C@@H]1C[C@@H](O)[C@H](n2c(=O)sc3c(=O)[nH]c(N)nc32)O1 (single isomer, unassigned) [Example 1-A]	high levels of IFNα, IP10, TNFα, and IL-6 were found induced	
CCC(O)[C@@H]1C[C@@H](O)[C@H](n2c(=O)sc3cnc(N)nc32)O1 (single isomer, unassigned) [Example 2-A]		metabolized to yield the corresponding active metabolites
CCC(O)[C@@H]1C[C@@H](OC(C)=O)[C@H](n2c(=O)sc3cnc(N)nc32)O1 (single isomer, unassigned) [Example 3-A]		metabolized to yield the corresponding active metabolites
CCC(OC(C)=O)[C@@H]1C[C@@H](O)[C@H](n2c(=O)sc3cnc(N)nc32)O1 (single isomer, unassigned) [Example 4-A]		metabolized to yield the corresponding active metabolites
CC(=O)OC(C1CC1)[C@@H]1C[C@@H](O)[C@H](n2c(=O)sc3cnc(N)nc32)O1 (single isomer, unassigned) [Example 16-A]		metabolized to yield the corresponding active metabolites
Nc1ncc2sc(=O)n([C@@H]3O[C@H](C(O)C4CC4)C[C@H]3O)c2n1 (single isomer, unassigned) [Example 17-A]		metabolized to yield the corresponding active metabolites
CC(=O)OCC(CCn1cnc2cnc(N)nc21)COC(C)=O [Famciclovir, famciclovir, reference compound]		metabolized to yield the corresponding active metabolites
